In one assay the target is T1, E. coli MenE (Escherichia coli, UniProt P37353).
T1 construct: His6 (N); made in house; host or cells: E. coli BL21(DE3) pLysS
Kind of assay: MenE-MenB coupled enzyme inhibition assay (DHNA-CoA production at 392 nm). Conditions: for inhibition of MenE (in words): MenE coupled assay; for IC50: ecMenE 50 nM, OSB 60 μM, ATP 240 μM, CoA 240 μM, pH 7.4. Format: biochemical. How it is done:
Enzyme inhibition studies were performed in 20 mM NaHPO4 buffer (pH 7.4) containing 150 mM NaCl and 1 mM MgCl2 using a […] coupled assay in which MenE is rate-limiting. […] Reactions were initiated by addition of ecMenE (50 nM), and the production of DHNA-CoA was monitored at 392 nm (ε392=4000 M^−1 cm^−1).
With these linker analogues in hand, their inhibition of E. coli MenE using the previously reported MenE-Meng coupled assay was evaluated (Lu, X. et al. Bioorg. Med. Chem. Lett. 2008, 18, 5963). Consistent with predictions from the docking experiments, all but one of the analogues inhibited MenE, albeit with modest IC50 values compared to OSB-AMS (1) (Table 2).

The target of a further assay is T2, E. coli MenE (K437A) (Escherichia coli, UniProt P37353, K437A).
T2 construct: His6 (N); made in house; host or cells: E. coli BL21(DE3) pLysS
T2 sequence (P37353 1-451 K437A): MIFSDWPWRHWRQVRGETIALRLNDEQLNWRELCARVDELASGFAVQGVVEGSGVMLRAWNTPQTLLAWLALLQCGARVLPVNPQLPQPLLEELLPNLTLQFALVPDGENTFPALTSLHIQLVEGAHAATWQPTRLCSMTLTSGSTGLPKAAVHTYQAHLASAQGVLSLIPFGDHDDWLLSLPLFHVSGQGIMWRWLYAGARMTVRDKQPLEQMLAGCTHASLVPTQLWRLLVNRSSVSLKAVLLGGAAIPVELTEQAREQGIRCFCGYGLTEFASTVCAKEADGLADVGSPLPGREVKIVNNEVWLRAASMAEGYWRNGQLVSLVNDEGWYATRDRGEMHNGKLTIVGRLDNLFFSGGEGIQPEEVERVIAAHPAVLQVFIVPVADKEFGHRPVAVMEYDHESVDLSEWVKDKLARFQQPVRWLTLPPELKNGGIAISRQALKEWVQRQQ
Kind of assay: Isothermal titration calorimetry, MenE K437A lynchpin mutant. Conditions: ITC. Format: binding. How it is done:
Based on the nucleotide sequence of MenE (from E. coli strain K-12), the forward primer with the sequence of 5′-[…]-3′ and T7 reverse primer were designed, synthesized, and used to introduce the K437A mutation in E. coli MenE. High-fidelity Phusion polymerase (New England BioLabs) was used for standard polymerase chain reaction amplification and mutagenesis.
(§1) ITC was performed using VP-ITC instrument at 22° C. Inhibitor (1 mM) and E. coli MenE(wt) (30 μM) were prepared in 20 mM NaHPO4, pH 7.4 buffer containing 150 mM NaCl and 1 mM MgCl2. From the injection syringe, the inhibitor was titrated into the sample cell containing 1.8 mL solution of MenE. The data were fit to a single-binding site model with the Origin software package.
To probe for these interactions experimentally. the binding affinity of m-phenyl ether analogue 5 to wild-type E. coli MenE and the K437A mutant were compared.
(In general: ITC needs no label: the signal is the heat of the interaction.)

The next assay addresses T3, E. coli MenE(wt) (Escherichia coli, UniProt P37353).
T3 construct: His6 (N); made in house; host or cells: E. coli BL21(DE3) pLysS
The assay is described as follows: Isothermal titration calorimetry, wild-type MenE. The assay is classed as binding. The method, then: as §1
Next. the binding affinity of the 5 with E. coli MenE was deteremined using isothermal titration calorimetry (ITC).

A further assay has as its system MRSA (ATCC BAA-1762). Conditions: MRSA (ATCC BAA1762); Matarlo et al. Biochemistry 2015; cited from earlier work.

By IC50 is commonly meant the midpoint of a concentration-inhibition curve. Higher therefore signals weaker potency. As a reminder, the Kd is a measure of binding affinity in units of concentration. What is called MIC is the lowest concentration that inhibits growth of the organism.

Values after ≈ are worked out from the molar mass of the structure shown. Values joined by “and” are separate entries in the source; they are usually repeats but may differ in a detail not shown here. Identical values can stand only once. “Also recorded” adds a separate entry of the source. Where only a bound is given, the exact number is not on record here.

T1 sequence (P37353 whole entry): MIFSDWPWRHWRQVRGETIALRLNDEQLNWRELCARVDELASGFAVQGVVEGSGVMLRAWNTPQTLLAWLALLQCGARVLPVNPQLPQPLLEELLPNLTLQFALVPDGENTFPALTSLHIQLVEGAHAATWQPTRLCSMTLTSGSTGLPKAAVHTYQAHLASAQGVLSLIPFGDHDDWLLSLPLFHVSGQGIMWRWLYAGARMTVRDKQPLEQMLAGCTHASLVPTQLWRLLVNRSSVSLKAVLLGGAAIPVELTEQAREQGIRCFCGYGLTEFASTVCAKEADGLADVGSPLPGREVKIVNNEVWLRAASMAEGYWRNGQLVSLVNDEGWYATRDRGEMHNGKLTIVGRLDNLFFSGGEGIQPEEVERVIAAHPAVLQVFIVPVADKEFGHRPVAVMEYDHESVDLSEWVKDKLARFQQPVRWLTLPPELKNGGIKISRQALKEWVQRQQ
T3 sequence (P37353 whole entry): as above

In the case of `Nc1ncnc2c1ncn2[C@@H]1O[C@H](COc2cc(CCC(=O)c3ccccc3C(=O)O)cc(C(F)(F)F)c2)[C@@H](O)[C@H]1O` [compound 8], at E. coli MenE, the “inhibition of MenE (in words)” value is recorded as “slightly weaker inhibition” and the midpoint of inhibition, the IC50, lay at 26500 ± 2300 nM.

Regarding `Nc1ncnc2c1ncn2[C@@H]1O[C@H](COc2cccc(CCC(=O)c3ccccc3C(=O)O)c2)[C@@H](O)[C@H]1O` [compound 5], it took 8100 ± 900 nM to reach half-maximal inhibition at E. coli MenE (IC50). For the same compound, the Kd on E. coli MenE (K437A) is 244 nM; on E. coli MenE(wt) (ITC, 22° C, wild-type E. coli MenE), 244 nM and 249 nM.

For the compound `Nc1ncnc2c1ncn2[C@@H]1O[C@H](COc2ccc(CCC(=O)c3ccccc3C(=O)O)cc2)[C@@H](O)[C@H]1O` [compound 6, 5′-O-([2-(Carboxyl)phenyl]3-(3-hydroxyphenyl)propannyl)adenosine], on E. coli MenE, the “inhibition of MenE (in words)” value is “no inhibition; also recorded: did not inhibit MenE” and the 50% inhibitory concentration (IC50) was > 200000 nM. The “binding in the ITC assay (in words)” value at E. coli MenE(wt) (E. coli MenE) is “no binding”.

On to `Nc1ncnc2c1ncn2[C@@H]1O[C@H](COS(=O)(=O)NC(=O)CCC(=O)c2ccccc2C(=O)O)[C@@H](O)[C@H]1O` [OSB-AMS (1)], for which the MIC in the assay with MRSA (ATCC BAA-1762) was 31.25 µg/mL (≈ 56.8 µM).

(Values after patent US20220235088A1 (Memorial Sloan-Kettering Cancer Center, priority 2019, published 2022).)
